Measurements as given in US20110052720A1 (priority 2007, published 2011).

Experiment: Reversal of a formed copper phosphite precipitate by an added agent (Example 1)
Assay type: physicochemical
Details: precipitate from 0.6 g/l Cu(OH)2, 14.4 g/l KH2PO3, 1 g/l K2CO3, pH 5.5; chelators 10 mM, sodium lignosulfonate 6 g/l (48 hours of stirring)
Description: Copper phosphite precipitate was formed by combining 0.6 g/l of Cu(OH)2 and 14.4 g/l of KH2PO3 in the presence of 1 g/l of K2CO3 to ensure pH 5.5 in demineralised water.

O=C([O-])CN(CCN(CC(=O)[O-])CC(=O)O)CC(=O)O.[Na+].[Na+] [disodium EDTA]
Effect of afterwards addition on copper phosphite precipitate: immediately disappeared
